# Laboratory results published in ChEMBL document CHEMBL1201862, “PubChem BioAssay data set” (2004).
# Activity calls are given as the source filed them.
# Tests used:
# [1] = target: Luciferin 4-monooxygenase (Photinus pyralis, UniProt P08659); test: firefly luciferase enzyme inhibitors, dose response, biochemical, luminescence (AID 1891)
# [2] = Luminescence Cell-Based Dose Confirmation HTS to Identify Inhibitors of Platelet Dense Granule Release. [Related pubchem assays: 1663 (Primary HTS), 1678 (Summary of Project)]; format: functional
# [3] = target: T1, Rac GTPase-activating protein 1 (Homo sapiens, UniProt Q9H0H5); test: MgcRacGAP GTPase-activating activity inhibitors, confirmation, biochemical, ADP Hunter fluorescence, primary and confirmatory (AID 624330); format: functional
# T1 sequence (Q9H0H5 whole entry): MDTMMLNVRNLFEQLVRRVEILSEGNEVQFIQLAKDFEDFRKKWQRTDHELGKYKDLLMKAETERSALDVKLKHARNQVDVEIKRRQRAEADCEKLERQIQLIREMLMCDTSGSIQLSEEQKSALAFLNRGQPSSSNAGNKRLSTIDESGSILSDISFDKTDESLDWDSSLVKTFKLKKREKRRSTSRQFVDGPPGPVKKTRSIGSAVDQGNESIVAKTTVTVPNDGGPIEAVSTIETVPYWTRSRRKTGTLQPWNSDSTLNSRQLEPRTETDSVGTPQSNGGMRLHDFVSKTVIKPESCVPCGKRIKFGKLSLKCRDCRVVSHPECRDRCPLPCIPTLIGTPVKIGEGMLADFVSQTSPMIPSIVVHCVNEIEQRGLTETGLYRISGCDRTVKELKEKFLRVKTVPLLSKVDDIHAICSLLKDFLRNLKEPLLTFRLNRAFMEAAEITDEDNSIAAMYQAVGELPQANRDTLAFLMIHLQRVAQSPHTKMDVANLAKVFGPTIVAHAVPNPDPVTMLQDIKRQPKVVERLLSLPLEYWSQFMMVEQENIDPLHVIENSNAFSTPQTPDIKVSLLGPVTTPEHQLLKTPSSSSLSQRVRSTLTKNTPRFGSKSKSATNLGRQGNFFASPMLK
# [4] = Luminescence Cell-Based Dose Retest to Confirm Inhibitors of Cancer Stem Cells. [Related pubchem assays (depositor defined):AID2717, AID2721]; format: functional; settings: Homo sapiens
# [5] = cytotoxicity toward NIH3T3 fibroblasts, dose response, counter-screen, cell-based, ATP luminescence, mouse fibroblasts (AID 2010); format: functional;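 note: cells exposed to compound for about 90 hours before reading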
# [6] = inhibitors of intracellular T. cruzi replication, confirmation, NIH3T3 host cells, beta-gal luminescence (AID 2044); format: functional, cell-based;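 note: intracellular parasites grown in NIH/3T3 mouse fibroblasts as host cells; luminescent beta-galactosidase reporter signal from transgenic T. cruzi replicating inside host cells; inhibitors lower the luminescence signal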
# Cytochrome P450 2C9 = Cytochrome P450 2C9 (Homo sapiens, UniProt P11712)
# Chain of Cytochrome P450 2C9 (P11712 whole entry): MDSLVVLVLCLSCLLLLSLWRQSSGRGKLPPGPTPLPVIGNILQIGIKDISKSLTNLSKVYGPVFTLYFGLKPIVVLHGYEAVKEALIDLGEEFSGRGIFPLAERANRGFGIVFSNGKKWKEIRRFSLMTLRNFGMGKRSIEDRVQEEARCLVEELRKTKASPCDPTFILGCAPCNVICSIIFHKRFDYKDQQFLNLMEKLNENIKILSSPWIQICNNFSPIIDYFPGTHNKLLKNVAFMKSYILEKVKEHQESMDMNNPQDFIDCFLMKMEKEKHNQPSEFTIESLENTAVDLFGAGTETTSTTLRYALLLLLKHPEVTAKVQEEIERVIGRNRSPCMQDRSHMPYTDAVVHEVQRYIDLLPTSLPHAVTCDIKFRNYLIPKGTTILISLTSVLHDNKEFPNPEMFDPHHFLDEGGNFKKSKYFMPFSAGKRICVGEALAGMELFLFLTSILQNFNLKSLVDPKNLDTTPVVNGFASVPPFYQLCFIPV
# Cytochrome P450 3A4 = Cytochrome P450 3A4 (Homo sapiens, UniProt P08684);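 note: CYP3A4 tested as one member of a cytochrome P450 panel screen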
# Chain of Cytochrome P450 3A4 (P08684 whole entry): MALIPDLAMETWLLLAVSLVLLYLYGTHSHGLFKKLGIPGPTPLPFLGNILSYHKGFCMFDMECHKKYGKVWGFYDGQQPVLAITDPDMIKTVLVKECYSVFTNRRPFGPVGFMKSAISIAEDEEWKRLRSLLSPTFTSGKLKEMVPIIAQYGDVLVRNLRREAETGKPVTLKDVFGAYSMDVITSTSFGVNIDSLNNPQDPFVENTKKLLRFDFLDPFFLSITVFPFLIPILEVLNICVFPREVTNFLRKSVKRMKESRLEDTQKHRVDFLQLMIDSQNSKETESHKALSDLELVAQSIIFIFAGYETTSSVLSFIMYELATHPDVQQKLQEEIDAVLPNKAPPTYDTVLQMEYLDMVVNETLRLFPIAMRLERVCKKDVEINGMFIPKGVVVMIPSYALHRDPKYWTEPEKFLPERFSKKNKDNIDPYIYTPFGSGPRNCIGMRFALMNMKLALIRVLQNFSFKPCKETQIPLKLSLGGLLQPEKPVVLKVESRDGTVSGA
# Cytochrome P450 2C19 = Cytochrome P450 2C19 (Homo sapiens, UniProt P33261); test: Cytochrome panel assay with activity outcomes. Panel member name: p450-cyp2c19 Compounds with AC50 equal or less than 10 uM are considered active; format: functional; settings: read-out: AC50
# Chain of Cytochrome P450 2C19 (P33261 whole entry): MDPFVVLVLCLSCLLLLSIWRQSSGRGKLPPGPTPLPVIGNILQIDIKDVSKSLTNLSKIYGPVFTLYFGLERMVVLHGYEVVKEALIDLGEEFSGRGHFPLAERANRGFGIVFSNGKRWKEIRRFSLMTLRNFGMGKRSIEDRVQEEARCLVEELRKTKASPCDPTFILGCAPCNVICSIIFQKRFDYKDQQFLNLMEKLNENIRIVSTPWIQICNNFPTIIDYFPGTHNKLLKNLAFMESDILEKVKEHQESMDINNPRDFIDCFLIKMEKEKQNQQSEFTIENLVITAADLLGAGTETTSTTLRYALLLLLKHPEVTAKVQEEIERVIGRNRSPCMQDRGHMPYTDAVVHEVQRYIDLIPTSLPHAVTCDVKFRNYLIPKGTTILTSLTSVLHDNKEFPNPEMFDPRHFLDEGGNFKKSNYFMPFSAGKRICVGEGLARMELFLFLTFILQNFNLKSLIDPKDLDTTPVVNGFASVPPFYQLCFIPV
# [7] = target: T2, Heat shock factor protein 1 (Mus musculus, UniProt P38532); test: inhibition of MG132-induced HSE-luciferase signal, confirmation, cell-based, NIH3T3, luminescence, dose retest (AID 2382); format: functional;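 note: NIH3T3 fibroblasts with HSF1-driven luciferase reporter stressed by proteasome inhibitor MG132; luminescence from HSF1-driven luciferase expression after 8 hours of MG132 stress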
# T2 sequence (P38532 whole entry): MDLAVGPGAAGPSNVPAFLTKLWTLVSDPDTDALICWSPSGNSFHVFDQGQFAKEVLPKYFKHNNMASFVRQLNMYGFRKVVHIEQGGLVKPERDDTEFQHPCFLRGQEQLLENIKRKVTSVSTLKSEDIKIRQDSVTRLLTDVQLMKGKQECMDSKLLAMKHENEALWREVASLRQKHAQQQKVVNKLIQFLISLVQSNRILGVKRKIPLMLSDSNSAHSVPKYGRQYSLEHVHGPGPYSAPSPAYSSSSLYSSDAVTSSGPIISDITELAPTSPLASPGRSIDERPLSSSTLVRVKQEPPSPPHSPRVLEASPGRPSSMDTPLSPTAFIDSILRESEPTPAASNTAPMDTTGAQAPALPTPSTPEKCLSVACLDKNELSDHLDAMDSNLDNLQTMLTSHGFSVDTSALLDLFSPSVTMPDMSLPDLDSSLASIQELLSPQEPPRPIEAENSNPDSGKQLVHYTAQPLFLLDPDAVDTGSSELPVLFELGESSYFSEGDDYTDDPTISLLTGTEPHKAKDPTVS
# Streptokinase A = target: T3, Streptokinase A (Streptococcus pyogenes serotype M1, UniProt P10520); test: S. pyogenes streptokinase expression inhibitors, potency, dose response, plasminogen activation absorbance, OD405 (AID 1914); format: functional, Streptococcus pyogenes M1 GAS;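 note: secreted streptokinase activity via plasminogen activation per viability signal from cell pellet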
# T3 sequence (P10520 whole entry): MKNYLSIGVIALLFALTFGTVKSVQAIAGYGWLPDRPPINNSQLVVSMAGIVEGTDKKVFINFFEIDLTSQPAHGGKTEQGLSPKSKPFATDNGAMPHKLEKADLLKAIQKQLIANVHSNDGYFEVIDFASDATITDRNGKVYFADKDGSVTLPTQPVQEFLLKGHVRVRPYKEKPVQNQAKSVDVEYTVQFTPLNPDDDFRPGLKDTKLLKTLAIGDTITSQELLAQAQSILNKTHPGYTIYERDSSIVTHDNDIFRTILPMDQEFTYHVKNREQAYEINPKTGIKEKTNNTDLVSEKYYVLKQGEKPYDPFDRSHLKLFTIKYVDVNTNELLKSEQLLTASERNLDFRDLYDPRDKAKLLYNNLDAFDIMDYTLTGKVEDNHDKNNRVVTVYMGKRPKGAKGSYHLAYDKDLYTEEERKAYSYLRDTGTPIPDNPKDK
# Streptococcus = test: Group A Streptococcus viability loss, dose response, counter-screen for streptokinase expression inhibitor project, luminescence, BacTiterGlo (AID 1915); format: functional, organism-based;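 note: potency for reduction of bacterial viability or growth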
# [8] = test system: Streptococcus sp. 'group A'; test: growth inhibition of control SK(-) GAS strain, dose response, counter-screen for streptokinase expression inhibitor project, luminescence, kanamycin, BacTiterGlo, confirmation (AID 1900); format: functional, organism-based
# Chain of Luciferin 4-monooxygenase (P08659 whole entry): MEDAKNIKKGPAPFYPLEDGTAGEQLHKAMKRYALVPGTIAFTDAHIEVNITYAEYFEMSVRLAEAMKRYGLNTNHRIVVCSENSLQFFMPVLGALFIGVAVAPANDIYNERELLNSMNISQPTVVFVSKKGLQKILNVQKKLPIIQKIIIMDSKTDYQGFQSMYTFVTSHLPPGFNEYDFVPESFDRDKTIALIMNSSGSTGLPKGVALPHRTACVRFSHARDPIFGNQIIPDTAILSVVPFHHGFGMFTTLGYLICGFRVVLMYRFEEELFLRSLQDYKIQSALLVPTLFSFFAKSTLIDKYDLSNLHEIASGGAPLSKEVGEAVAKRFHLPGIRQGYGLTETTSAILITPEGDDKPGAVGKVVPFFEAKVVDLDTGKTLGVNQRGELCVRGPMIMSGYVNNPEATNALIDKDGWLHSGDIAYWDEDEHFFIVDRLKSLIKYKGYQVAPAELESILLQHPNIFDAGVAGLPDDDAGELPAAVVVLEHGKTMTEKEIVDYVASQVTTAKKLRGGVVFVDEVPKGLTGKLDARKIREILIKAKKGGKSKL
compound,measurement,setting,value
COc1ccc(CN2CCCC(C(=O)c3cccc(OC(C)C)c3)C2)cc1Cn1cccn1 (stereo not drawn),EC50,[1],> 112 µM (not active)
same,EC50,[2],> 112 µM (not active)
COCCNC(=O)COc1ccc(Nc2ccccc2)cc1,IC50,[3],47.6 µM (active)
CN(C(S)=Nc1ccc(SC(F)F)cc1)C(c1ccccc1)c1ccccc1,AC50,[4],4.57 µM (active)
CCCCn1c(N)c(N(Cc2ccccc2OC)C(=O)C(C)Oc2ccc(Cl)cc2)c(=O)[nH]c1=O (stereo not drawn),EC50,[1],> 112 µM (not active)
same,EC50,[2],> 112 µM (not active)
Cc1ccccc1-c1ccc(CN2CCN(C)C(CCO)C2)cc1 (stereo not drawn),AC50,[4],2.9 µM (active)
same,EC50,[5],4.69 µM (active)
same,EC50,[6],0.828 µM (active)
O=[N+]([O-])c1ccc(N2CCC(=NOCc3ccc(Cl)cc3)CC2)cc1,AC50,Cytochrome P450 2C9,14.1 µM (inconclusive)
same,AC50,Cytochrome P450 3A4,35.5 µM (inconclusive)
same,AC50,Cytochrome P450 2C19,4.47 µM (inconclusive)
Cc1nn(CC(=O)Nc2cccnc2)c(C)c1[N+](=O)[O-],EC50,[1],> 112 µM (not active)
same,EC50,[2],7.26 µM (active)
N=C(NOC(=O)c1ccc(Cl)cc1)c1[nH]ncc1Br,EC50,[1],0.882 µM (active)
same,EC50,[2],4.36 µM (active)
C=C(Br)Cn1c(CCCC)nc2ccccc21,AC50,[4],0.514 µM (active)
O=C(O)/C=C/c1cccc(NC(=O)c2ccccc2)c1,EC50,[1],4.49 µM (active)
same,EC50,[2],17.4 µM (active)
Cc1cccc(N2C(S)=C(C#N)C(=O)NC2c2cccs2)c1 (stereo not drawn),IC50,[3],110 µM (active)
CCOC(=O)Nc1ccc2nc(Sc3ccc(Cl)cc3)sc2c1,AC50,[4],1.53 µM (active)
CS(=O)(=O)N1CCC2(CCCN(C(=O)Nc3cccc(F)c3)C2)CC1,AC50,Cytochrome P450 3A4,20 µM (inconclusive)
CC1CCN(CC(=O)Nc2ccc(S(=O)(=O)NC3CC3)cc2)CC1,IC50,[3],179 µM (active)
same,EC50,[7],> 195 µM (not active)
O=C(CC1(O)C(=O)N(Cc2ccccc2)c2ccccc21)c1ccncc1 (stereo not drawn),EC50,[1],> 112 µM (not active)
same,EC50,[2],> 112 µM (not active)
CC(=O)Nc1ccc(Nc2ccccc2)cc1,IC50,[3],75.6 µM (active)
O=C(COc1ccc2ccccc2c1)NNC(=O)Cc1cccc2ccccc12,AC50,Cytochrome P450 3A4,14.1 µM (inconclusive)
same,AC50,Cytochrome P450 2C19,0.398 µM (inconclusive)
Cc1ccccc1CNc1ccc(C(CC(N)=O)NC(=O)c2ccccc2)cc1[N+](=O)[O-] (stereo not drawn),AC50,[4],3.49 µM (active)
O=C(Cc1ccc(Cl)c(Cl)c1)Nc1ccc(SC(F)F)cc1,AC50,[4],4.04 µM (active)
CC1(C)CC(=O)C(C(C#Cc2ccccc2)C2=C(O)CC(C)(C)CC2=O)=C(O)C1,AC50,Cytochrome P450 3A4,31.6 µM (inconclusive)
COCCn1c(=O)c(-c2cn(C)c3ccccc23)nc2cnc(OCc3ccccc3)nc21,AC50,Cytochrome P450 3A4,7.94 µM (inconclusive)
CN(C)CCOC(=O)CCc1ccccc1,EC50,[1],> 112 µM (not active)
same,EC50,[2],> 112 µM (not active)
Cc1cc(C)c(-c2noc(C(=O)OC(C)(C)C)c2C(=O)OC(C)(C)C)c(C)c1,AC50,Cytochrome P450 2C9,12.6 µM (inconclusive)
same,EC50,Streptokinase A,11.5 µM (active)
same,AC50,Cytochrome P450 2C19,11.2 µM (inconclusive)
same,EC50,Streptococcus,> 150 µM (not active)
same,EC50,[8],10.4 µM (active)
Cc1cc(NC(=S)NC(=O)CC(C)C)ccc1Br,AC50,Cytochrome P450 2C9,0.0447 µM (inconclusive)
same,AC50,Cytochrome P450 3A4,20 µM (inconclusive)
OC(CNCC1COc2ccccc2O1)COCc1cccs1 (stereo not drawn),IC50,[3],76.9 µM (active)
Cc1cc(C(F)(F)F)nn1CC(=O)Nc1cccnc1,AC50,Cytochrome P450 2C9,39.8 µM (inconclusive)
same,AC50,Cytochrome P450 3A4,25.1 µM (inconclusive)
same,AC50,Cytochrome P450 2C19,22.4 µM (inconclusive)
CC(OC(=O)CCNC1=NS(=O)(=O)c2ccccc21)C(=O)Nc1ccc(N(C)C)cc1 (stereo not drawn),IC50,[3],54.7 µM (active)
Cc1ccsc1/C=N/Nc1nc2ccccc2[nH]1,IC50,[3],71.6 µM (active)
O=[N+]([O-])C(=C\Nc1ccccc1O)/C=N/c1ccccc1O,IC50,[3],58.9 µM (active)
O=C(N/N=C/c1ccc(OC2CSC2)cc1)c1ccccc1,AC50,[4],2.49 µM (active)
CC1(C)C(=O)N=C2C1=C(O)C(=O)c1ccccc12,AC50,Cytochrome P450 2C9,25.1 µM (inconclusive)
same,AC50,Cytochrome P450 3A4,31.6 µM (inconclusive)
same,AC50,Cytochrome P450 2C19,31.6 µM (inconclusive)
